Data set [1] deals with PANC-1. Description: Cytotoxicity against human PANC-1 cells assessed as inhibition of cell growth measured after 8 days by XTT cell viability assay. It is filed as functional, cell-based. The note with it: PANC-1, 192 h. A general note: Tetrazolium dyes change colour on reduction, which living cells bring about.
In data set [2] the test system is MDA-MB-231. Description: Cytotoxicity against human MDA-MB-231 cells assessed as inhibition of cell growth measured after 8 days by XTT cell viability assay. The note with it: MDA-MB-231, 192 h. Format: functional, cell-based.
Data set [3] concerns NCI-H1299. Briefly: Cytotoxicity against human NCI-H1299 cells assessed as inhibition of cell growth measured after 8 days by XTT cell viability assay. Particulars: NCI-H1299, 192 h. Format: functional, cell-based.
The test system of data set [4] is PC-3. Description: Cytotoxicity against human PC-3 cells assessed as inhibition of cell growth measured after 8 days by XTT cell viability assay. Format: functional, cell-based. Particulars: PC-3, 192 h.
A short description of data set [5]: Cytotoxicity against human Fibroblast cells assessed as inhibition of cell growth measured after 8 days by XTT cell viability assay. Format: toxicity, cell-based.

For `CC[C@H](C)[C@@H]([C@@H](CC(=O)N1CCC[C@H]1[C@H](OC)[C@@H](C)C(=O)N[C@@H](Cc1ccccc1)Cn1cc(C(=O)O)nn1)OC)N(C)C(=O)[C@@H](NC(=O)[C@H](C(C)C)N(C)C)C(C)C`, the IC50 in data set [1] stood at 52 nM; in data set [2] it was 93.9 nM; in data set [3] it was 137 nM; in data set [4] it was 15.7 nM. In data set [5], the 50% inhibitory concentration (IC50) at 8 days came to 39.2 nM.
The matching figures for `CC[C@H](C)[C@@H]([C@@H](CC(=O)N1CCC[C@H]1[C@H](OC)[C@@H](C)C(=O)N[C@@H](Cc1ccccc1)Cn1cc(CNC)nn1)OC)N(C)C(=O)[C@@H](NC(=O)[C@H](C(C)C)N(C)C)C(C)C`: 1.3 nM, 19.8 nM, 4.7 nM, 8.9 nM and 38.4 nM.
As to `CC[C@H](C)[C@@H]([C@@H](CC(=O)N1CCC[C@H]1[C@H](OC)[C@@H](C)C(=O)N[C@@H](Cc1ccccc1)Cn1cc(CO)nn1)OC)N(C)C(=O)[C@@H](NC(=O)[C@H](C(C)C)N(C)C)C(C)C`, the half-inhibitory concentration (IC50) in data set [1] was 4.7 nM; in data set [2], 63.4 nM; in data set [3] it was 7.8 nM; in data set [4], 10.9 nM. Also, the IC50 at 8 days in data set [5] is 51.5 nM.
For `CC[C@H](C)[C@@H]([C@@H](CC(=O)N1CCC[C@H]1[C@H](OC)[C@@H](C)C(=O)N[C@@H](Cc1ccccc1)Cn1cc(CN)nn1)OC)N(C)C(=O)[C@@H](NC(=O)[C@H](C(C)C)N(C)C)C(C)C` the same measures were 10.4 nM, 94.6 nM, 18.7 nM, 15.5 nM and 73.7 nM.

Broadly, the IC50 is the concentration that gives 50% inhibition.
